The target in the experiment is ALK2 (Homo sapiens (Human), UniProt Q04771). Nature of the experiment: ALK2 inhibition, LanthaScreen Eu Kinase Binding Assay (ThermoFisher Scientific / Life Technologies). Conditions: read-out: Measured Ki (IC50) Value for Compounds: IC50. On the procedure:
Biochemical assays to measure the inhibitory effects of the compounds were performed by ThermoFisher Scientific (Life Technologies). ALK2 inhibition was tested using LanthaScreen™ Eu Kinase Binding Assay screening protocol.
For orientation: In TR-FRET formats the signal depends on donor and acceptor labels being close together.
ALK2, sequence (Q04771 21-509): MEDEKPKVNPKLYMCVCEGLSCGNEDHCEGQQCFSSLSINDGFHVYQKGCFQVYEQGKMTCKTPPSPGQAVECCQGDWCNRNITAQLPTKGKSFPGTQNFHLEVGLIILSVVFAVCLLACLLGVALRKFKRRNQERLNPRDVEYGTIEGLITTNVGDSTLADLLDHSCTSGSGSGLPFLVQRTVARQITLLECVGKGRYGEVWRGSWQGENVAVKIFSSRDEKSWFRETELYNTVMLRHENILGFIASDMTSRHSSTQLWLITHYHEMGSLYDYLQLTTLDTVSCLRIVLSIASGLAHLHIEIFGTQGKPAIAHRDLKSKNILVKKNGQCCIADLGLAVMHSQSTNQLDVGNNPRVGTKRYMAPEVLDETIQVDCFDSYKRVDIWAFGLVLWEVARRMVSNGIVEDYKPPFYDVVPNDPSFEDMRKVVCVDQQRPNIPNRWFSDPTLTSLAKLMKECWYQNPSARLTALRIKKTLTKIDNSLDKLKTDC
One may read the IC50 as the point on the concentration scale where inhibition reaches its midpoint. Regarding `COc1cc(-n2cnc(Nc3nc(N4CCC[C@H]4CO)nc4c3CCCC4)c2)cc(OC)c1OC` [Compound 296a, (S)-(1-(4-((1-(3,4,5-trimethoxyphenyl)-1H-imidazol-4-yl)amino)-5,6,7,8-tetrahydroquinazolin-2-yl)pyrrolidin-2-yl)methanol], the half-inhibitory concentration (IC50) was under 100 nM.
Take `COc1cc(-n2cnc(Nc3nc(N4CCC[C@@H]4CO)nc4sccc34)c2)cc(OC)c1OC` [Compound 297a, (R)-(1-(4-((1-(3,4,5-trimethoxyphenyl)-1H-imidazol-4-yl)amino)thieno[2,3-d]pyrimidin-2-yl)pyrrolidin-2-yl)methanol]: the 50% inhibitory concentration (IC50) is under 100 nM.
In the case of `COc1cc(-n2cnc(Nc3nc(N4CCC[C@@H]4C(N)=O)nc4sccc34)c2)cc(OC)c1OC` [Compound 298a, (R)-1-(4-((1-(3,4,5-trimethoxyphenyl)-1H-imidazol-4-yl)amino)thieno[2,3-d]pyrimidin-2-yl)pyrrolidine-2-carboxamide] it was under 100 nM; in that of `COc1cc(-n2cnc(Nc3nc(N4CCC[C@@H]4C(N)=O)nc4ccsc34)c2)cc(OC)c1OC` [Compound 299a, (R)-1-(4-((1-(3,4,5-trimethoxyphenyl)-1H-imidazol-4-yl)amino)thieno[3,2-d]pyrimidin-2-yl)pyrrolidine-2-carboxamide], under 100 nM.
With `COc1cc(-n2cnc(Nc3nc(N4CCC[C@@H]4C(N)=O)nc4ccoc34)c2)cc(OC)c1OC` [Compound 300a, (R)-1-(4-((1-(3,4,5-trimethoxyphenyl)-1H-imidazol-4-yl)amino)furo[3,2-d]pyrimidin-2-yl)pyrrolidine-2-carboxamide], the IC50 is under 100 nM.
Regarding `COc1cc(-n2cnc(Nc3nc(N4CCC[C@@H]4CO)c4occc4n3)c2)cc(OC)c1OC` [Compound 301b, (R)-(1-(2-((1-(3,4,5-trimethoxyphenyl)-1H-imidazol-4-yl)amino)furo[3,2-d]pyrimidin-4-yl)pyrrolidin-2-yl)methanol], the IC50 is under 100 nM.
In the case of `COc1cc(-n2cnc(Nc3nc(N4CCC[C@H]4C(N)=O)nc4c3CCCC4)c2)cc(OC)c1OC` [Compound 302a, (S)-1-(4-((1-(3,4,5-trimethoxyphenyl)-1H-imidazol-4-yl)amino)-5,6,7,8-tetrahydroquinazolin-2-yl)pyrrolidine-2-carboxamide] it was under 100 nM.
As for `COc1cc(-n2cnc(Nc3nc(N4CCC[C@@H]4CO)nc4ccsc34)c2)cc(OC)c1OC` [Compound 303a, (R)-(1-(4-((1-(3,4,5-trimethoxyphenyl)-1H-imidazol-4-yl)amino)thieno[3,2-d]pyrimidin-2-yl)pyrrolidin-2-yl)methanol], the concentration for half-maximal inhibition (IC50) is under 100 nM.
With `COc1cc(-n2cnc(Nc3nc(N4CCC[C@@H]4CO)nc4ccccc34)c2)cc(OC)c1OC` [Compound 304a, (R)-(1-(4-((1-(3,4,5-trimethoxyphenyl)-1H-imidazol-4-yl)amino)quinazolin-2-yl)pyrrolidin-2-yl)methanol], the 50% inhibitory concentration (IC50) is under 100 nM.
With `COc1cc(-n2cnc(Nc3nc(N4CCC[C@@H]4C(N)=O)nc4ccccc34)c2)cc(OC)c1OC` [Compound 305a, (R)-1-(4-((1-(3,4,5-trimethoxyphenyl)-1H-imidazol-4-yl)amino)quinazolin-2-yl)pyrrolidine-2-carboxamide], the half-inhibitory concentration (IC50) is under 100 nM.
`COc1cc(-n2cnc(Nc3nc(N4CCC[C@@H]4CO)nc4cc(N5CCC[C@@H]5CO)ccc34)c2)cc(OC)c1OC` [Compound 306a, ((2R,2′R)-1,1′-(4-((1-(3,4,5-trimethoxyphenyl)-1H-imidazol-4-yl)amino)quinazoline-2,7-diyl)bis(pyrrolidine-2,1-diyl))dimethanol]: the IC50 is under 100 nM.
For `COc1cc(-n2cnc(Nc3nc(N4CCC[C@@H]4CO)c4cc[nH]c4n3)c2)cc(OC)c1OC` [Compound 307c, (R)-(1-(2-((1-(3,4,5-trimethoxyphenyl)-1H-imidazol-4-yl)amino)-7H-pyrrolo[2,3-d]pyrimidin-4-yl)pyrrolidin-2-yl)methanol] the value was under 100 nM; for `COc1cc(-n2cnc(Nc3nc(N4CCC[C@@H]4CO)nc4[nH]ccc34)c2)cc(OC)c1OC` [Compound 308b, (R)-(1-(4-((1-(3,4,5-trimethoxyphenyl)-1H-imidazol-4-yl)amino)-7H-pyrrolo[2,3-d]pyrimidin-2-yl)pyrrolidin-2-yl)methanol], under 100 nM; for `COc1cc(-n2cnc(Nc3nc(N4CCC[C@@H]4CO)c4ccsc4n3)c2)cc(OC)c1OC` [Compound 309b, (R)-(1-(2-((1-(3,4,5-trimethoxyphenyl)-1H-imidazol-4-yl)amino)thieno[2,3-d]pyrimidin-4-yl)pyrrolidin-2-yl)methanol], under 100 nM.
For `COc1cc(-n2cnc(Nc3nc(N4CCC[C@@H]4CO)c4sccc4n3)c2)cc(OC)c1OC` [Compound 310b, (R)-(1-(2-((1-(3,4,5-trimethoxyphenyl)-1H-imidazol-4-yl)amino)thieno[3,2-d]pyrimidin-4-yl)pyrrolidin-2-yl)methanol], the concentration for half-maximal inhibition (IC50) is under 100 nM.
For `COc1cc(-n2cnc(Nc3nc(N4CCC[C@H]4C(N)=O)nc4c3COC4)c2)cc(OC)c1OC` [Compound 311a, (S)-1-(4-((1-(3,4,5-trimethoxyphenyl)-1H-imidazol-4-yl)amino)-5,7-dihydrofuro[3,4-d]pyrimidin-2-yl)pyrrolidine-2-carboxamide], the concentration for half-maximal inhibition (IC50) was under 100 nM.
In the case of `COc1cc(-n2cnc(Nc3nc(N4CCC[C@@H]4C(N)=O)nc4c3COC4)c2)cc(OC)c1OC` [Compound 312a, (R)-1-(4-((1-(3,4,5-trimethoxyphenyl)-1H-imidazol-4-yl)amino)-5,7-dihydrofuro[3,4-d]pyrimidin-2-yl)pyrrolidine-2-carboxamide] it was under 100 nM; in that of `COc1cc(-n2cnc(Nc3nc(N4CCC[C@@H]4C(N)=O)nc4c3CCCC4)c2)cc(OC)c1OC` [Compound 313a, (R)-1-(4-((1-(3,4,5-trimethoxyphenyl)-1H-imidazol-4-yl)amino)-5,6,7,8-tetrahydroquinazolin-2-yl)pyrrolidine-2-carboxamide], under 100 nM.
On to `COc1cc(-n2cnc(Nc3nc(N4CCC[C@@H]4C(N)=O)nc4[nH]ccc34)c2)cc(OC)c1OC` [Compound 314b, (R)-1-(4-((1-(3,4,5-trimethoxyphenyl)-1H-imidazol-4-yl)amino)-7H-pyrrolo[2,3-d]pyrimidin-2-yl)pyrrolidine-2-carboxamide], for which the half-maximal inhibitory concentration (IC50) was under 100 nM.
On to `COc1cc(-n2cnc(Nc3nc(N4CCC[C@H]4C(N)=O)nc4cc(CN5CCCCC5)oc34)c2)cc(OC)c1OC` [Compound 315f, (S)-1-(6-(piperidin-1-ylmethyl)-4-((1-(3,4,5-trimethoxyphenyl)-1H-imidazol-4-yl)amino)furo[3,2-d]pyrimidin-2-yl)pyrrolidine-2-carboxamide], for which the half-inhibitory concentration (IC50) is under 100 nM.
In the case of `COc1cc(-n2cnc(Nc3nc(N4CCC[C@H]4CO)nc4cnn(C)c34)c2)cc(OC)c1OC` [Compound 316a, (S)-(1-(1-methyl-7-((1-(3,4,5-trimethoxyphenyl)-1H-imidazol-4-yl)amino)-1H-pyrazolo[4,3-d]pyrimidin-5-yl)pyrrolidin-2-yl)methanol] it was 100 to 1000 nM; in that of `COc1cc(-n2cnc(Nc3nc(N4CCC[C@@H]4CO)nc4scnc34)c2)cc(OC)c1OC` [Compound 317a, (R)-(1-(7-((1-(3,4,5-trimethoxyphenyl)-1H-imidazol-4-yl)amino)thiazolo[5,4-d]pyrimidin-5-yl)pyrrolidin-2-yl)methanol], under 100 nM.
For `COc1cc(-n2cnc(Nc3nc(N4CCC[C@@H]4C(N)=O)nc4scnc34)c2)cc(OC)c1OC` [Compound 318a, (R)-1-(7-((1-(3,4,5-trimethoxyphenyl)-1H-imidazol-4-yl)amino)thiazolo[5,4-d]pyrimidin-5-yl)pyrrolidine-2-carboxamide] the value was under 100 nM.
In the case of `CCOc1ccc(-n2cnc(Nc3nc(N4CCC[C@H]4CO)nn4cccc34)c2)cc1OCC` [Compound 319b, (S)-(1-(4-((1-(3,4-diethoxyphenyl)-1H-imidazol-4-yl)amino)pyrrolo[2,1-f][1,2,4]triazin-2-yl)pyrrolidin-2-yl)methanol] it was 100 to 1000 nM; in that of `COc1ccc(-n2cnc(Nc3nc(N4CCC[C@H]4CO)nn4cccc34)c2)cc1C(F)(F)F` [Compound 320b, (S)-(1-(4-((1-(4-methoxy-3-(trifluoromethyl)phenyl)-1H-imidazol-4-yl)amino)pyrrolo[2,1-f][1,2,4]triazin-2-yl)pyrrolidin-2-yl)methanol], under 100 nM; in that of `COc1cncc(-n2cnc(Nc3nc(N4CCC[C@H]4CO)nn4cccc34)c2)c1` [Compound 321b, (S)-(1-(4-((1-(5-methoxypyridin-3-yl)-1H-imidazol-4-yl)amino)pyrrolo[2,1-f][1,2,4]triazin-2-yl)pyrrolidin-2-yl)methanol], under 100 nM.
With `COc1cc(Cl)cc(-n2cnc(Nc3nc(N4CCC[C@H]4CO)nn4cccc34)c2)c1` [Compound 322b, (S)-(1-(4-((1-(3-chloro-5-methoxyphenyl)-1H-imidazol-4-yl)amino)pyrrolo[2,1-f][1,2,4]triazin-2-yl)pyrrolidin-2-yl)methanol], the concentration for half-maximal inhibition (IC50) was under 100 nM.
For `COc1cc(-n2cnc(Nc3nc(N4C[C@@H]5C[C@@H]5[C@@H]4CO)c4cccn4n3)c2)cc(OC)c1OC` [Compound 324b, ((1S,2R,5R)-3-(2-((1-(3,4,5-trimethoxyphenyl)-1H-imidazol-4-yl)amino)pyrrolo[2,1-f][1,2,4]triazin-4-yl)-3-azabicyclo[3.1.0]hexan-2-yl)methanol] the value was 100 to 1000 nM.
For `COc1cc(-n2cnc(Nc3nc(N4[C@H](CO)C[C@H]5C[C@H]54)c4cccn4n3)c2)cc(OC)c1OC` [Compound 325e, ((1R,3S,5R)-2-(2-((1-(3,4,5-trimethoxyphenyl)-1H-imidazol-4-yl)amino)pyrrolo[2,1-f][1,2,4]triazin-4-yl)-2-azabicyclo[3.1.0]hexan-3-yl)methanol] the value was under 100 nM.

These data come from US11661426B2, “Imidazole-containing inhibitors of ALK2 kinase” (BioCryst Pharmaceuticals, Inc., priority 2017, dated 2023).
